Where only a bound is given, the exact number is not on record here.

For orientation: EC50 means the concentration at which the effect is half-maximal.

The target of assay [1] is T1, human TGR5 (h-TGR5) (Homo sapiens, UniProt Q8TDU6).
T1 sequence (Q8TDU6 1-330): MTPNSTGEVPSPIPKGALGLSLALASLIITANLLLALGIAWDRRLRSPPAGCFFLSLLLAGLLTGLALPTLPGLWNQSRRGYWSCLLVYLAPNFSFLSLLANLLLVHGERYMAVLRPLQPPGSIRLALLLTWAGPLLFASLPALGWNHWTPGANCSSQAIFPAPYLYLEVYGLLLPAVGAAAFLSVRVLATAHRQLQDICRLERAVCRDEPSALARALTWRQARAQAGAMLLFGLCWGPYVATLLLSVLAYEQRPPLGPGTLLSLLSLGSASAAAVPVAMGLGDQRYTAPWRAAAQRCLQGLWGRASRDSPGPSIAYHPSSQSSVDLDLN
Put plainly: TGR5/CRE-Luciferase Assay. It counts as cell-based. To be noted: HEK 293 hTGR5/CRE-Luc cells, 6 hours incubation, read-out: CRE-Luc Agonist (EC50). An outline of the steps: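 HEK 293 CRE-Luciferase cells stably expressing the receptor, plated in DMEM 18-20 h before assay, then exposed to serially diluted compounds (DMEM with 5% DMSO) for 6 h. Luciferase read-out after lysis; EC50 from dose-response.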

Assay [2] has as its target T2, h-TGR5 (Homo sapiens, UniProt Q8TDU6).
T2 sequence (Q8TDU6 1-330): T1 sequence (Q8TDU6 1-330)
The assay can be described thus: TGR5 cAMP Assay using Cisbio cAMP Dynamic 2 htrf assay kit. It counts as cell-based. As to conditions: hTGR5CRE-luc HEK 293 cells.

`COc1cc(C(C)(C)c2cnc(SCc3c(F)cc(C(=O)N[C@H]4CC[N+](C)(C)C4)cc3Cl)n2-c2ccc(F)cc2)ccc1Cl` [Example 2f, (3S)-3-({[3-chloro-4-({[5-{1-[4-chloro-3-(methyloxy)phenyl]-1-methylethyl}-1-(4-fluorophenyl)-1H-imidazol-2-yl]thio}methyl)-5-fluorophenyl]carbonyl}amino)-1,1-dimethylpyrrolidinium]: the 50% effective concentration (EC50) in assay [1] and in assay [2] was under 0.1 µM in each case.

Consider `COc1cc(C(C)(C)c2cnc(SCc3c(F)cc(C(=O)N[C@@H]4CCC[N+](C)(C)C4)cc3Cl)n2-c2ccc(F)cc2)ccc1Cl` [Example 2g, (3R)-3-({[3-chloro-4-({[5-{1-[4-chloro-3-(methyloxy)phenyl]-1-methylethyl}-1-(4-fluorophenyl)-1H-imidazol-2-yl]thio}methyl)-5-fluorophenyl]carbonyl}amino)-1,1-dimethylpiperidinium], for which the EC50 in assay [1] and in assay [2] was under 0.1 µM each time.

For the compound `COc1cc(C(C)(C)c2cnc(SCc3c(F)cc(C(=O)N[C@@H]4CC[N+](C)(C)C4)cc3Cl)n2-c2ccc(F)cc2)ccc1Cl` [Example 2h, (3R)-3-({[3-chloro-4-({[5-{1-[4-chloro-3-(methyloxy)phenyl]-1-methylethyl}-1-(4-fluorophenyl)-1H-imidazol-2-yl]thio}methyl)-5-fluorophenyl]carbonyl}amino)-1,1-dimethylpyrrolidinium], the EC50 in assay [1] and in assay [2] was under 0.1 µM throughout.

As to `COc1cc(C(C)(C)c2cnc(SCc3c(F)cc(C(=O)NCC[N+]4(C)CC[N+](C)(C)CC4)cc3Cl)n2-c2ccc(F)cc2)ccc1Cl` [Example 2i, 1-[2-({[3-chloro-4-({[5-{1-[4-chloro-3-(methyloxy)phenyl]-1-methylethyl}-1-(4-fluorophenyl)-1H-imidazol-2-yl]thio}methyl)-5-fluorophenyl]carbonyl}amino)ethyl]-1,4,4-trimethylpiperazinediium], the EC50 in assay [1] and in assay [2] was 0.1 to 1 µM throughout.

As for `COc1cc(C(C)(C)c2cnc(SCc3c(F)cc(C(=O)NCC[N+]4(C)CCOCC4)cc3Cl)n2-c2ccc(F)cc2)ccc1Cl` [Example 2j, 4-[2-({[3-chloro-4-({[5-{1-[4-chloro-3-(methyloxy)phenyl]-1-methylethyl}-1-(4-fluorophenyl)-1H-imidazol-2-yl]thio}methyl)-5-fluorophenyl]carbonyl}amino)ethyl]-4-methylmorpholin-4-ium], the EC50 in assay [1] and in assay [2] was 1 to 10 µM in each case.

Turning to `COc1cc(-n2c(C(C)(C)c3ccc4onc(N)c4c3)cnc2SCc2c(F)cc(C(=O)N[C@H]3CC[N+](C)(C)C3)cc2F)ccc1F` [Example 2k, (3S)-3-[({4-[({5-[1-(3-amino-1,2-benzisoxazol-5-yl)-1-methylethyl]-1-[4-fluoro-3-(methyloxy)phenyl]-1H-imidazol-2-yl}thio)methyl]-3,5-difluorophenyl}carbonyl)amino]-1,1-dimethylpyrrolidinium], the EC50 in assay [1] and in assay [2] was under 0.1 µM throughout.

As for `COc1cc(C(C)(C)c2cnc(SCc3c(F)cc(C(=O)N4CCC([N+](C)(C)C)CC4)cc3Cl)n2-c2ccc(F)cc2)ccc1Cl` [Example 2l, 1-{[3-chloro-4-({[5-{1-[4-chloro-3-(methyloxy)phenyl]-1-methylethyl}-1-(4-fluorophenyl)-1H-imidazol-2-yl]thio}methyl)-5-fluorophenyl]carbonyl}-N,N,N-trimethylpiperidin-4-aminium], the EC50 in assay [1] and in assay [2] was under 0.1 µM in each case.

As for `COc1cc(C(C)(C)c2cnc(SCc3c(F)cc(C(=O)NCC4(O)CC[N+](C)(C)CC4)cc3Cl)n2-c2ccc(F)cc2)ccc1Cl` [Example 2m, 4-[({[3-chloro-4-({[5-{1-[4-chloro-3-(methyloxy)phenyl]-1-methylethyl}-1-(4-fluorophenyl)-1H-imidazol-2-yl]thio}methyl)-5-fluorophenyl]carbonyl}amino)methyl]-4-hydroxy-1,1-dimethylpiperidinium], the EC50 in assay [1] and in assay [2] was under 0.1 µM each time.

For the origin of these results see US8846739B2, “TGR5 agonists” (Exelixis Patent Company LLC, priority 2009, dated 2014).
